Values of other authors in patent publication US20220296560A1, “PHARMACEUTICAL COMPOSITION FOR ORAL ADMINISTRATION IN POWDER FORMULATION CONTAINING ANTIVIRAL AGENT” (DAE HWA PHARMA. CO., LTD., priority 2019, published 2022).
Read-outs that look alike come from different tables or passages of the source.

Settings: in vivo

CC(=O)N[C@H]1[C@H]([C@H](O)[C@H](O)CO)OC(C(=O)O)=C[C@@H]1N=C(N)N [zanamivir, 5-(acetylamino)-4-{[amino(imino)methyl]amino}-2,6-anhydro-3,4,5-trideoxy-D-glycero-D-galacto-non-2-enonic acid]
bioavailability (inhaled or intranasal): 4-17%
bioavailability (po): about 2%
